Data set [1] addresses T1, H^+ /K^+ -ATPase (Sus scrofa, UniProt P19156).
T1 construct: a microsome fraction prepared from porcine gastric mucosa was used as a standard enzyme; from tissue; host or cells: porcine gastric mucosa, microsome fraction
The data set can be described thus: Inhibitory Action on H^+ /K^+ -ATPase Activity. It is filed as biochemical. To be noted: microsome fraction from porcine gastric mucosa, pH7.4, 37° C., 30 min preincubation, 15 min reaction. As for the experimental part: Inhibitory Action on H^+ /K^+ -ATPase Activity
According to the method of Hongo et al. [The Japanese Journal of Pharmacology, 52, p295, (1990)], a microsome fraction prepared from porcine gastric mucosa was used as a standard enzyme. The standard enzyme (10-20lig protein) and the test compound (0.1-100 μM) dissolved in dimethylsulfoxide was incubated at 37° C. for 30 minutes in the 50 mM Tris-acetate buffer (pH7.4, containing 2 mM magnesium chloride, 5 mM potassium chloride). The enzyme reaction was started by adding adenosinetriphosphate (ATP). Tris at the final concentration of 2 mM, and the reaction was kept at 37° C. for 15 minutes. The reaction was stopped by adding chilled 10% trichloroacetic acid. Inorganic phosphate released during the reaction was calorimetrically determined according to the method of Fiske-Subbarow [The Journal of Biological Chemistry, 66, p375, (1925)]. H^+ /K^+ -ATPase activity was determined by the difference of the enzyme activities under the conditions with or without potassium chloride. The inhibitory activities of test compounds were determined as the 50% inhibitory concentration (IC50 value) from reaction-concentration curve, and the results are shown in Table 3.

Data set [2] has as its system gastric acid secretion. Description: Inhibition of Gastric Acid Secretion Observed Under Acute Fistula Method. The conditions noted are these: Rattus norvegicus; 30 mg/kg intraduodenally, rats, histamine 10 mg/kg s.c., cumulative 2 h. It is filed as in vivo, male Wistar rats. As for the experimental part:
Inhibition of Gastric Acid Secretion Observed Under Acute Fistula Method
Male Wistar rats (6-8 weeks) fasted for 24 hours (water ad libitum) were used. The rats were anesthetized by intraperitoneal administration of 1.25 g/kg of urethane. The abdomen was incised, and acute gastric fistula was connected to the stomach. Two ml of saline was injected into the stomach, and recovered every 20 minutes. The gastric acid secretion was determined by titrating of gastric juice by 150 mM sodium hydroxide up to pH7.0 using an autotitrator. Test compounds (30 mg/kg) suspended in a 0.5% aqueous sodium carboxymethylcellulose (CMC-Na) solution were administered intraduodenally. After 1 hour, gastric acid secretion was stimulated by subcutaneous administration of histamine dihydrochloride dissolved in saline (10 mg/kg). Inhibition (%) of gastric acid secretion was determined by calculating cumulative amount of the acid secretion during two hours after histamine stimulation and then comparing the cumulative amount with that in the control group. In the control group, only 0.5% aqueous CMC-Na solution was administered intraduodenally.

In data set [3] the test system is gastric acid secretion. The data set can be described thus: Inhibition of Gastric Acid Secretion Observed Under Stomach Perfusion Method. To be noted: Rattus norvegicus, ip, 1 h; rats, histamine i.v. 8 mg/kg/hr, inhibition one hour after administration (1-10 mg/kg, "intrapenetorially"); read-out: ID50 (dose showing 50% inhibition of acid secretion). The class given is in vivo, male Sprague Dawrey rats. The procedure:
Inhibition of Gastric Acid Secretion Observed Under Stomach Perfusion Method
Male Sprague Dawrey rats (6-7weeks) fasted for 24 hours were used (water ad libitum). The rats were anesthetized by intraperitoneal administration of 1.25 g/kg of urethane. The abdomen was incised, and gastral cavity was perfused with saline during experiment. The perfusate was titrated by 10 mM sodium hydroxide up to pH5.5 using an autotitrator in accordance with Stat-method. Gastric acid secretion was stimulated by intravenous administration of histamine dihydrochloride (8 mg/kg/hr). Two hours after histamine stimulation, a test compound 1-10 mg/kg) was administered intrapenetorially. The test compound was mixed with small amount of polysorbate-80, and the mixture was suspended in saline. The test compound was evaluated using ID50 (dose showing 50% inhibition of acid secretion) which was calculated based on inhibition of the acid secretion observed one hour after administration of the compound.

On the set-up of data set [4]: species or system male ICR mice. To be noted: mouse, in vivo, po, 10080 min. As for the experimental part:
Male ICR mice (6 weeks, 3 mice per group) fasted for 16 hours were used ad libitum). A test compound suspended in 5% aqueous gum arabic solution was orally administered. After administration, mortality of the animals observed during 7 days and approximate lethal dose was determined.

A value given as a limit tells only on which side of the number the result lay.

32 molecules from patent publication US6020342A, “Fused imidazo[1,2-A]pyridines” (Shinnippon Pharmaceutical, Inc., priority 1995, dated 2000) can be followed below.

The IC50 is the concentration needed to halve the response being measured. A high value points to weaker potency in that assay. A word on the inhibition in vivo: it is how much of the control response was suppressed. A low value points to a weak effect.

T1 sequence (P19156 2-1034 limits assumed): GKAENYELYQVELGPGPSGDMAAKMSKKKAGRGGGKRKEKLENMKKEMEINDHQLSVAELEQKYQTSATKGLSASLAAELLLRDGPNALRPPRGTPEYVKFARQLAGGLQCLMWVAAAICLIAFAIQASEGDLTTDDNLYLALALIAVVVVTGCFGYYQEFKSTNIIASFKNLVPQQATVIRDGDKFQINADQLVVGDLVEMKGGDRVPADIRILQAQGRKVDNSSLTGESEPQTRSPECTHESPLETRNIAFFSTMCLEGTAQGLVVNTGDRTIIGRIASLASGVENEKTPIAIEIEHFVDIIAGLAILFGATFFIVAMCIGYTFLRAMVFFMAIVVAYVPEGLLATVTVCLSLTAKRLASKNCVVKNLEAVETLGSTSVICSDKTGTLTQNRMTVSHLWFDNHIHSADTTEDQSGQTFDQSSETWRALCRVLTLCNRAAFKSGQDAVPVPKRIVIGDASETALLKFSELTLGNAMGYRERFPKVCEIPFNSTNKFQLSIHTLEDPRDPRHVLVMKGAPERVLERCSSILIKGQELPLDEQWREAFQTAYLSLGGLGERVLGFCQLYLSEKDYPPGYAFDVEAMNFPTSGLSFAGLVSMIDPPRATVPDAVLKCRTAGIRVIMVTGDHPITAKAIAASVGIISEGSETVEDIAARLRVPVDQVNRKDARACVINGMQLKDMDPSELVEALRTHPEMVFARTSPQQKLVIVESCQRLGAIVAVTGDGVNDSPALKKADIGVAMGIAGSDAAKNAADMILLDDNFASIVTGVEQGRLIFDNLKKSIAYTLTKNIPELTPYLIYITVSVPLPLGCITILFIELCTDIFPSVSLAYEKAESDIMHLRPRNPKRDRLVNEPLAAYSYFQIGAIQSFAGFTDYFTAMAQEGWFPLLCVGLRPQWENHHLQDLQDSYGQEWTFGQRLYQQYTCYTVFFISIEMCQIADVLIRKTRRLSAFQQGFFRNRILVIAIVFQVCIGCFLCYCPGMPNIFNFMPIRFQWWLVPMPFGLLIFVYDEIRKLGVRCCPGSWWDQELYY
T1 sequence (P18434 whole entry partner): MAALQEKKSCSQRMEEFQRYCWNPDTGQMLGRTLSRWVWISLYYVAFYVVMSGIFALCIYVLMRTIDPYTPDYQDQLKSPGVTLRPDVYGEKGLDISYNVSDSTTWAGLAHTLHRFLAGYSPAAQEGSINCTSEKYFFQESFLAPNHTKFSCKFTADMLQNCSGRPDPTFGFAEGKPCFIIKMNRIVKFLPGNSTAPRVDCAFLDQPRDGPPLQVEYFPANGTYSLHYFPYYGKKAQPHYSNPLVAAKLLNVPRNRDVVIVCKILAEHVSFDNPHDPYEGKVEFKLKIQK

On to `Cc1ccccc1-c1nc2c3c(Cl)cccc3ccn2c1N` [Compound 7, 3-Amino-10-chloro-2-(2-methylphenyl)imidazo[2,1-a]isoquinoline], for which 8 µM corresponded to half-maximal inhibition in data set [1] (IC50). In addition, the inhibition in vivo at 30 mg/kg in data set [2] came to 74.9%.
Regarding `Cc1ccc2ccn3c(N)c(-c4ccccc4C)nc3c2c1` [Compound 10, 3-Amino-9-methyl-2-(2-methylphenyl)imidazo[2,1-a]isoquinoline], the ED50 in data set [3] came to 4.2 mg/kg. The molecule also came in with a concentration for half-maximal inhibition (IC50) in data set [1] of 20 µM.
Take `CCCc1cc2ccccc2c2nc(-c3ccccc3C)c(N)n12` [Compound 12]: the ED50 in data set [3] amounted to 7.2 mg/kg. The molecule further gave a concentration for half-maximal inhibition (IC50) in data set [1] of 12.5 µM.
Consider `COc1cn2c(N)c(-c3ccccc3C)nc2c2ccccc12` [Compound 24, 3-Amino-6-methoxy-2-(2-methylphenyl)imidazo[2,1-a]isoquinoline], for which, in data set [3], the ED50 stood at 5.4 mg/kg. In addition, the 50% inhibitory concentration (IC50) in data set [1] is 13.5 µM.
As to `Cc1ccccc1-c1nc2c3cc(OC(=O)C(C)C)ccc3ccn2c1N` [Compound 43, 3-Amino-9-isobutyryloxy-2-(2-methylphenyl)imidazo[2,1-a]isoquinoline], in data set [3], the ED50 turned out to be 7 mg/kg.
Consider `COc1ccc2cc(C)n3c(N)c(-c4ccccc4C)nc3c2c1` [Compound 56, 3-Amino-9-methoxy-5-methyl-2-(2-methylphenyl)imidazo[2,1-a]isoquinoline], for which the ED50 in data set [3] was found to be 6.5 mg/kg.
Regarding `Cc1sccc1-c1nc2c3ccccc3ccn2c1N` [Compound 78, 3-Amino-2-(2-methyl-3-thienyl)imidazo[2,1-a]isoquinoline], the ED50 in data set [3] worked out at 1.6 mg/kg. Also, the IC50 in data set [1] came to 17 µM.
With `Cc1cc(-c2nc3c4ccccc4ccn3c2N)c(C)o1` [Compound 91, 3-Amino-2-(2,5-dimethyl-3-furyl)imidazo[2,1-a]isoquinoline], the Approximate lethal dose in data set [4] is recorded as > 2,000 mg/kg. Also, in data set [1], it took 5.6 µM to reach half-maximal inhibition (IC50).
With `Cn1cccc1-c1nc2c3ccccc3ccn2c1N` [Compound 94, 3-Amino-2-(1-methyl-2-pyrrolyl)imidazo[2,1-a]isoquinoline], the ED50 in data set [3] turned out to be 5.8 mg/kg. This molecule yielded a 50% inhibitory concentration (IC50) in data set [1] of 3 µM.
For `Cc1ccccc1-c1nc2n(c1N)CCc1ccccc1-2` [Compound 96, 3-Amino-2-(2-methylphenyl)-5,6-dihydroimidazo[2,1-a]isoquinoline], in that order: 8.8 mg/kg and 17.5 µM.
With `COc1ccc2c(c1)-c1nc(-c3ccccc3C)c(N)n1CC2` [Compound 103, 3-Amino-9-methoxy-2-(2-methylphenyl)-5,6-dihydroimidazo[2,1-a]isoquinoline], the ED50 in data set [3] is 7.4 mg/kg.
`CCCN(CC)c1c(-c2cccc(C)c2)nc2c3ccccc3ccn12` [Compound 211, 3-(N-Ethyl-N-propylamino)-2-(3-methylphenyl)imidazo[2,1-a]isoquinoline] showed an IC50 in data set [1] of 2.4 µM.
On to `CCCN(CC)c1c(-c2sccc2C)nc2c3ccccc3ccn12` [Compound 212, 3-(N-Ethyl-N-propylamino)-2-(3-methyl-2-thienyl)imidazo[2,1-a]isoquinoline], for which the Approximate lethal dose in data set [4] is given as > 2,000 mg/kg. Also, half-maximal inhibition in data set [1] (IC50) required 1.9 µM.
For `Cc1ccccc1-c1nc2c3ccccc3ccn2c1N1CCCCC1` [Compound 217, 2-(2-Methylphenyl)-3-piperidinoimidazo[2,1-a]isoquinoline], in data set [4], the Approximate lethal dose is > 2,000 mg/kg. For the same molecule, the concentration for half-maximal inhibition (IC50) in data set [1] worked out at 4.7 µM.
Turning to `CCN(Cc1ccc(C)cc1)c1c(-c2ccccc2C)nc2c3ccccc3ccn12` [Compound 219, 3-[N-Ethyl-N-(4-methylbenzyl)amino]-2-(2-methylphenyl)imidazo[2,1-a]isoquinoline], the IC50 in data set [1] amounted to 3.6 µM.
In data set [1], `CCc1ccccc1-c1nc2c3ccccc3ccn2c1N=Cc1ccc(C)cc1` [Compound 226, 2-(2-Ethylphenyl)-3-(4-methylbenzylideneamino)imidazo[2,1-a]isoquinoline] came in with an IC50 of 1.9 µM.
For `Cc1cc2sccc2c2nc(-c3ccccc3)c(N)n12` [Compound 230, 3-Amino-5-methyl-2-phenylimidazo[1,2-a]thieno[3,2-c]pyridine], in data set [3], the ED50 came out at 6.2 mg/kg. This molecule also yielded an IC50 in data set [1] of 20 µM.
Regarding `Nc1c(-c2ccccc2Cl)nc2c3ccsc3ccn12` [Compound 232, 3-Amino-2-(2-chlorophenyl)imidazo[1,2-a]thieno[3,2-c]pyridine], in data set [3], the ED50 was 3.2 mg/kg. Also, in data set [1], the 50% inhibitory concentration (IC50) was found to be 17 µM.
`Cc1ccccc1-c1nc2c3ccsc3ccn2c1N` [Compound 234, 3-Amino-2-(2-methylphenyl)imidazo[1,2-a]thieno[3,2-c]pyridine]: in data set [3], the ED50 was found to be 1.8 mg/kg. This molecule also registered an IC50 in data set [1] of 7.6 µM.
In turn, `CCc1cc2sccc2c2nc(-c3ccccc3C)c(N)n12` [Compound 238, 3-Amino-5-ethyl-2-(2-methylphenyl)imidazo[1,2-a]thieno[3,2-c]pyridine] had a 50% inhibitory concentration (IC50) in data set [1] of 2.9 µM.
As for `Cc1ccccc1-c1nc2c3ccsc3c(C)c(C)n2c1N` [Compound 239, 3-Amino-5,6-dimethyl-2-(2-methylphenyl)imidazo[1,2-a]thieno[3,2-c]pyridine], the IC50 in data set [1] was determined as 26 µM.
As to `COc1ccccc1-c1nc2c3ccsc3cc(C)n2c1N` [Compound 245, 3-Amino-2-(2-methoxyphenyl)-5-methylimidazo[1,2-a]thieno[3,2-c]pyridine], the IC50 in data set [1] is 9 µM.
With `Cc1cc(Cl)ccc1-c1nc2c3ccsc3cc(C)n2c1N` [Compound 248, 3-Amino-2-(4-chloro-2-methylphenyl)-5-methylimidazo[1,2-a]thieno[3,2-c]pyridine], the half-maximal inhibitory concentration (IC50) in data set [1] is 4.7 µM.
For the molecule `Cc1sccc1-c1nc2c3ccsc3cc(C)n2c1N` [Compound 255, 3-Amino-5-methyl-2-(2-methyl-3-thienyl)imidazo[1,2-a]thieno[3,2-c]pyridine], the ED50 in data set [3] came to 1 mg/kg. In addition, in data set [1], 6.6 µM corresponded to half-maximal inhibition (IC50).
Molecule `Cc1cc(-c2nc3c4ccsc4ccn3c2N)c(C)s1` [Compound 264, 3-Amino-2-(2,5-dimethyl-3-thienyl)imidazo[1,2-a]thieno[3,2-c]pyridine] displayed an IC50 in data set [1] of 1.2 µM.
With `Cn1cccc1-c1nc2c3ccsc3ccn2c1N` [Compound 275], in data set [1], half-maximal inhibition (IC50) was put at 24 µM.
With `Cc1ccccc1-c1nc2c3ccn(C)c3ccn2c1N` [Compound 291, 3-Amino-7-methyl-2-(2-methylphenyl)imidazo[1,2-a]pyrrolo[3,2-c]pyridine], in data set [3], the ED50 came out at 6.4 mg/kg. Moreover, it took 4.8 µM to reach half-maximal inhibition in data set [1] (IC50).
On to `Cc1ccccc1-c1nc2c3ccn(Cc4ccccc4)c3ccn2c1N` [Compound 292, 3-Amino-7-benzyl-2-(2-methylphenyl)imidazo[1,2-a]pyrrolo[3,2-c]pyridine], for which the concentration for half-maximal inhibition (IC50) in data set [1] is 8.8 µM.
As to `Cc1ccccc1-c1nc2c3sccc3ccn2c1N` [Compound 310, 3-Amino-2-(2-methylphenyl)imidazo[1,2-a]thieno[2,3-c]pyridine], in data set [4], the Approximate lethal dose is on record as > 2,000 mg/kg. Besides, the ED50 in data set [3] was determined as 3 mg/kg. For the same molecule, half-maximal inhibition in data set [1] (IC50) required 26 µM.
With `Cc1ccccc1-c1nc2c3sccc3cc(C)n2c1N` [Compound 311, 3-Amino-5-methyl-2-(2-methylphenyl)imidazo[1,2-a]thieno[2,3-c]pyridine], the IC50 in data set [1] stood at 8 µM.
Turning to `CCNc1c(-c2ccccc2C)nc2c3ccsc3ccn12` [Compound 340, 3-Ethylamino-2-(2-methylphenyl)imidazo[1,2-a]thieno[3,2-c]pyridine], the ED50 in data set [3] was 4.9 mg/kg. The IC50 in data set [1] was 33 µM.
Molecule `CCCN(CC)c1c(-c2ccccc2C)nc2c3sccc3ccn12` [Compound 356, 3-(N-Ethyl-N-propylamino)-2-(2-methylphenyl)imidazo[1,2-a]thieno[2,3-c]pyridine] had an IC50 in data set [1] of 8.4 µM.
